Reference: patent publication US10407440B2, “Therapeutic agent for motor disorders” (KYOWA HAKKO KIRIN CO., LTD., priority 2009, dated 2019)

Experiments:
Type in all cases: in vivo
[1] = tested on: MPTP-treated common marmoset; assay: Test Example 3: combination with L-DOPA in MPTP-treated common marmoset, motor disability score; conditions: L-DOPA alone 2.5, 5.0, 7.5 and 10.0 mg/kg (with 1/4 amount benserazide hydrochloride)
Excerpt: Parkinson's disease is a disease based on the progressive degeneration and loss of dopaminergic neuron in substantia nigra-striatum. In primates, a treatment with MPTP, which is a dopamine neurotoxin, causes selective degeneration and loss of dopaminergic neuron in substantia nigra-striatum and induces symptoms of akinesia, muscle rigidity and the like. The primates treated with MPTP are known as the model of Parkinson's disease [Proceedings of the National Academy of Science USA, vol. 80, p. 4546 (1983)]. In addition, common marmoset belongs to Haplorhini and is known to show the symptoms of Parkinson's disease by MPTP, like other Haplorhini [Neuroscience Letter, vol. 57, p. 37 (1985)]. […] The parkinsonian symptoms were judged using the index described in a previous report [Annales of Neurology, vol. 43, p. 507 (1998)]. All compounds were used as a suspension in 0.5% MC400, 10% aqueous sucrose solution. The subject animal was placed in an observation cage (with locomotor activity measuring apparatus) one day before the test compound administration for preconditioning to the environment. The symptoms of Parkinson's disease were continuously monitored through one-way mirror and disability score was scored each 10 min for 6 hr.
The locomotor activity was automatically measured using a computer by a measuring apparatus with a photocell.

[2] = tested on: MPTP-treated common marmoset that developed motor complication; assay: Test Example 4: combination with L-DOPA in MPTP-treated common marmoset that developed motor complication
Method: 10 mg/kg of L-DOPA (containing 2.5 mg/kg of benserazide hydrochloride) was administered by gavage to common marmoset that developed chronic parkinsonian symptoms by treatment with MPTP by the method described in Test Example 3 (MPTP-treated marmoset) twice a day at about 6 hr intervals. L-DOPA was repeatedly administered for more than 3 weeks to induction of motor complication (dyskinesia symptom, wearing-off phenomenon, on-off fluctuation and the like) in MPTP-treated marmoset in addition to parkinsonian symptoms, and the marmoset was used for the test. […] The locomotor activity was automatically measured using a computer by a measuring apparatus with a photocell. […] The subject animal was placed in an observation cage (with locomotor activity measuring apparatus) one day before the test compound administration for preconditioning to the environment. The symptoms of Parkinson's disease were continuously monitored through one-way mirror and disability score was scored each 10 min for 6 hr.

[3] = tested on: MPTP-treated common marmoset that developed motor complication; assay: Test Example 5: influence on dyskinesia in MPTP-treated common marmoset that developed motor complication; conditions: L-DOPA alone 1.25, 2.5, 5.0, 7.5 and 10 mg/kg (with benserazide hydrochloride)
Method: 10 mg/kg of L-DOPA (containing 2.5 mg/kg of benserazide hydrochloride) was administered to common marmoset that developed chronic parkinsonian symptoms by treatment with MPTP by the method described in Test Example 3 (MPTP-treated marmoset) twice a day at about 6 hr intervals. L-DOPA was repeatedly administered for more than 3 weeks to induction of motor complication (dyskinesia symptom, wearing-off phenomenon, on-off fluctuation and the like) in MPTP-treated marmoset in addition to parkinsonian symptoms, and the marmoset was used for the test. The dyskinesia severity was rating using the rating scale described in a previous report [[…] of Neurology, vol. 43, p. 507 (1998)] as in Test Example 2. […] The subject animal was placed in an observation cage (with locomotor activity measuring apparatus) one day before the test compound administration for preconditioning to the environment. The dyskinesia symptoms were observed through one-way mirror and scored each 20 min for 6 hr. [table] The locomotor activity was automatically measured using a computer by a measuring apparatus with a photocell.

N[C@@H](Cc1ccc(O)c(O)c1)C(=O)O [L-DOPA]
parkinsonian symptoms [1]: decreased within increasement of the dosage | duration (on-time) of anti-parkinsonian activities of L-DOPA ([2]; L-DOPA 2.5 mg/kg alone, gavage): about 50 min | minimum disability score ([2]; L-DOPA 2.5 mg/kg alone, gavage): 5.33±0.80 | parkinsonian symptoms ([2]; L-DOPA alone 2.5 mg/kg or 10 mg/kg (with benserazide hydrochloride)): decreased with the increasement of dosage | dyskinesia [3]: dyskinesia was induced
